Values of other authors in publication PMC10950972, “Relative bioavailability of fedratinib through various alternative oral administration methods in healthy adults” (Cancer Chemotherapy and Pharmacology, 2023).

Key:
[1] = design: method as in PMID 15598479; details: cited from earlier work
[2] = design: method as in PMID 34480861; details: patients; compared with healthy adults and patients with rheumatoid arthritis; cited from earlier work

For `COc1cc2ncnc(Nc3ccc(F)c(Cl)c3)c2cc1OCCCN1CCOCC1` [gefitinib], the “Differences in bioavailability and PK parameters, intact capsules vs nasogastric administration” value [1] is given as “no clinically significant differences”.
For `CCS(=O)(=O)N1CC(CC#N)(n2cc(-c3ncnc4[nH]ccc34)cn2)C1` [baricitinib], the “PK after solution of crushed tablets via nasogastric tube vs PK previously reported” value [2] is given as “consistent with PK results previously reported”.
